The text below walks through data of ChEMBL document CHEMBL4422677, “Prenylated Diresorcinols Inhibit Bacterial Quorum Sensing” (J Nat Prod, 2019).

Structures are written as SMILES. Activity calls are given as the source filed them. The rule behind the calls is not given here.

Data set [1] is described as follows: Inhibition of Staphylococcus aureus USA300 LAC quorum sensing system Agr assessed as reduction in AIP production measured after 5 hrs by UPLC-MS analysis. Details: species or system Staphylococcus aureus subsp. aureus USA300.
Data set [2] deals with T1, Accessory gene regulator protein A (Staphylococcus aureus) (UniProt P0A0I7).
T1 sequence (whole entry): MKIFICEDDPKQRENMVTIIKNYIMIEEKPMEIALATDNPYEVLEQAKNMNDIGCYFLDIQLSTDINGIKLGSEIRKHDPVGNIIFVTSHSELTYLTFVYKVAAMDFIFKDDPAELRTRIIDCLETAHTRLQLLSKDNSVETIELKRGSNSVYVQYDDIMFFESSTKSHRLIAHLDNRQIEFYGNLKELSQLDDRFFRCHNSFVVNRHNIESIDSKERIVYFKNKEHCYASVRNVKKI
The data set is described as follows: Inhibition of Staphylococcus aureus USA300 LAC quorum sensing system AgrA assessed as reduction in RNA3 transcription at 9 to 16 uM after 5 hrs by RNA protect cell reagent based qRT-PCR analysis. The conditions noted are these: Staphylococcus aureus subsp. aureus USA300.

Data set [3] has as its target T1, Accessory gene regulator protein A (Staphylococcus aureus). In words: Inhibition of Staphylococcus aureus USA300 LAC quorum sensing system AgrA assessed as reduction in psma transcription at 2.9 to 16 uM after 5 hrs by RNA protect cell reagent based qRT-PCR analysis. The conditions noted are these: Staphylococcus aureus subsp. aureus USA300. In general terms: In qPCR the cycle at which signal appears reflects the starting amount.

Data set [4] has as its system Staphylococcus aureus subsp. aureus USA300. In words: Inhibition of Staphylococcus aureus USA300 LAC quorum sensing system Agr assessed as reduction in hla transcription at 2.9 to 16 uM after 5 hrs by RNA protect cell reagent based qRT-PCR analysis.
The subject of data set [5] is Staphylococcus aureus. In words: Effect on growth of Staphylococcus aureus USA300 LAC measured at 1 hr interval for 5 hrs.

What is called IC50 is the midpoint of a concentration-inhibition curve. As to `CC(C)=CC1c2c(O)cc(C)cc2Oc2cc(C)cc(O)c21`, the IC50 in data set [1] lay within 6.3 to 12.5 µM. For `CCCCC/C=C/C1=C(CO)[C@@H](O)[C@H]2O[C@@]2(C/C=C(\C)C(=O)O)C1=O`, the IC50 in data set [1] was 1.3 µM. In the case of `CC(C)=C[C@H]1c2c(O)cc(C)cc2Oc2cc(C)c(C(=O)O)c(O)c21`, in data set [1], the IC50 came out at 0.3 µM. The inhibition result in data set [2], in data set [3] and in data set [4] was “Active” in each case. The Activity entry in data set [5] is “Non-Toxic”. Take `O=C1c2cc(O)cc(O)c2C(=O)c2c(O)cc(CO)cc21`: in data set [1], the IC50 is 6.3 to 12.5 µM.

Regarding `CC(C)=CCc1c(O)cc(C)cc1Oc1cc(C)c(C(=O)O)c(O)c1`, the IC50 in data set [1] worked out at 4.6 µM.
